# In patent publication US11254700B2, “GSK-3β inhibitors and use thereof in methods of treatment” (UNIVERSITY OF HAWAII, priority 2017, dated 2022):
# Experiments:
# [1] = system: Aβ plaques and Iba1-positive microglia; test: Immunofluorescence labeling (Aβ+IBA1); assay type: in vivo, mouse; settings: APP/PS1 mice
# Method: The backgrounds of all mice (APP/PS1 dual transgenic mice and wild-type mice with littermates) were C57/B6. Transgenic mice were randomly divided into three groups (n=20 for each group), and wild-type mice were used as controls (n=20). The control group and one group of transgenic mice (model group) were given sterilized ultrapure water, and the other two groups of transgenic mice received low- and high-dose Isoorientin (20 and 50 mg/kg, respectively) via intragastric administration for 60 days. Throughout the study-period, animals were housed in a controlled environment (temperature, 22° C.; humidity, 50-60%, 12-hour light/12-hour dark schedules), with free access to rodent chow and water. After a Morris water maze test, mice were perfused with cold phosphate-buffered saline (PBS), brain tissues were dissected and kept frozen at −80° C. until further analysis. […] Double-labelling procedures were performed to determine the relationship between Iba1-positive and Aβ-positive plaques. […] Sections were then blocked with 5% BSA in 0.01% TRITON X-100 in TBS (TBST) for 1 hour at room temperature. […] Representative images were obtained by fluorescence microscope (Leica).
# amyloid plaques = test: Thioflavin-S staining of brain plaques; assay type: in vivo, mouse; design: dose or concentration left out as unconfirmed; settings: more pronounced with increasing dose
# Method: The backgrounds of all mice (APP/PS1 dual transgenic mice and wild-type mice with littermates) were C57/B6. Transgenic mice were randomly divided into three groups (n=20 for each group), and wild-type mice were used as controls (n=20). […] Throughout the study-period, animals were housed in a controlled environment (temperature, 22° C.; humidity, 50-60%, 12-hour light/12-hour dark schedules), with free access to rodent chow and water. After a Morris water maze test, mice were perfused with cold phosphate-buffered saline (PBS), brain tissues were dissected and kept frozen at −80° C. until further analysis. […] The brain tissue was then embedded in an OCT agent and placed at −80° C. for storage until use. […] The Thio-S staining procedure was according to known methods (Maiti, et al. (2016) Histochem. Cell Biol. 146(5):609-625). Briefly, Thio-S solution at 0.1% (w/v) was prepared by dissolving 0.1 gram of Thioflavin-S(Sigma-Aldrich) in 50% ethanol (v/v). The tissue sections were washed three times with PBS for five minutes each time. The sections were incubated with 0.1% Thio-S for 10 minutes, dipping them three times in 50% ethanol (v/v) for 10 minutes each time, and finally washing once in PBS, before being mounted, as described above. The sections were visualized using a fluorescence microscope (Leica, Germany), with excitation/emission filters (480/550 nm).
# [2] = system: SH-SY5Y cells treated with Aβ42 oligomers; test: Anti-Aβ42 neurotoxicity assay; assay type: cell-based, human
# Method: Human neuroblastoma SH-SY5Y cell line (Sigma-Aldrich, Saint Louis, Mo.) was cultured in DMEM/F12 (v/v 1:1) media supplemented with 2 mM glutamine, 10% heat-inactivated fetal bovine serum (FBS) and 1% antibiotics including penicillin and streptomycin. After reaching 70-80% confluence, cells were then subcultured on poly-L-lysine plates with 10 μM retinoic acid in a reduced serum media (1% FBS) to promote neuronal maturation and differentiation as described (Agholme, et al. (2010) J. Alzheimer's Dis. 20: 1069-1082). Cell cultures were incubated at 37° C. in a fully humidified atmosphere containing 5% CO2.
# The toxic oligomers of Aβ42 were prepared as described (Liang, et al. (2016) ACS Chem. Neurosci. 7:912-923). Briefly, lyophilized Aβ42 peptide was dissolved in hexafluoroisopropanol, dried under vacuum, and stored at −20° C. Immediately prior to use, the peptide residue was reconstituted in DMEM/F12 media to make a stock solution at 0.1 mM and incubated at 4° C. for 24 hours to form diffusible oligomers. Aβ42 oligomers at a final concentration of 10 μM were assayed for cell viability.
# SH-SY5Y cells were seeded at a density of 3×10^5 cells/mL in a 96-well plate in DMEM/F12 media containing 10 μM retinoic acid and 1% FBS to suppress cell proliferation. Cells were incubated under regular culture conditions for attachment. After 24 hours of plating, the cells were pretreated with different concentrations of test samples or the 0.2% DMSO as a vehicle control for 1 hour and then co-incubated with 10 μM Aβ42 for 72 hours. After the experimental treatment, the cells were subject to a […]® 96 AQueous One Solution Cell Proliferation […] Assay according to the manufacturer's instruction. […] Each data point was collected in triplicate of two independent experiments.
# GSK-3β = GSK-3β (Homo sapiens, UniProt P49841); test: Kinase luminescent assay (ADP-Glo), GSK-3β inhibition; assay type: biochemical; settings: 25 μM ATP, 1 hour, room temperature; mean of quadruplicate of two experiments; read-out: IC50 against GSK-3β
# Method: Kinase Luminescent Assay.
# Kinase inhibition was assessed with the ADP-Glo Kinase Assay. […] The reaction mixture was incubated for 1 hour at room temperature followed by the addition of the ADP-Glo′ reagents according to the manufacturer's protocol. The kinase inhibitor staurosporine was used at 1 μM as a reference control. Each data point was collected in quadruplicate of two independent experiments.
# in vitro = settings: PAMPA, 5 h, 20 μM, pH 7.4
# Method: Samples were run in quadruplicate.
# Oral administration is noninvasive and is preferred for chronical diseases such as Alzheimer's disease and other CNS disorders. […] In the PAMPA model, the amount of target compounds diffused from a donor compartment to an acceptor compartment through a tri-layer phospholipid pre-coated membrane are measured to assess oral-absorption potential of drug candidates. In the present study, 1, 4, 9, 17, 21 and 30 were evaluated with the PAMPA assay.
# Chain of GSK-3β (P49841 whole entry): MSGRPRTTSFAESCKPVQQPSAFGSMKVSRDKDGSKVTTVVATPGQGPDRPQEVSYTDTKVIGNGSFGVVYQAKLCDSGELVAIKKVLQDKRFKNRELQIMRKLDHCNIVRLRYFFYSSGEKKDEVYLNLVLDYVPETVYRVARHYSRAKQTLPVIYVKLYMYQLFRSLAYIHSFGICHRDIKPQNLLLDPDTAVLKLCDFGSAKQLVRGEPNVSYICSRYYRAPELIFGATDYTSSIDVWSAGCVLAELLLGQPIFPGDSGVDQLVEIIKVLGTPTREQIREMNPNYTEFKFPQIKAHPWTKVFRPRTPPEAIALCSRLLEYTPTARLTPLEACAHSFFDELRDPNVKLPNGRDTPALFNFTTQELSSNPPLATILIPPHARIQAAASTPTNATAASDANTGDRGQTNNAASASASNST
smiles,measurement,setting,value
"O=c1cc(-c2ccc(O)c(O)c2)oc2cc(O)c([C@@H]3O[C@H](CO)[C@@H](O)[C@H](O)[C@H]3O)c(O)c12 [Compound 1, isoorientin]",Aβ plaques in cortex and hippocampus,[1],reduced
same,activated aggregated Iba1-positive cells around plaques,[1],also reduced
same,thioflavin-S-positive plaques,amyloid plaques,reduced
same,EC50,"[2]; Homo sapiens, SH-SY5Y, 1 hour pretreatment, 10 μM Aβ42, 72 hours, read-out: neuroprotective potency EC50",47 µM
same,"effective dose, morphological protection from Aβ42 intoxication",[2]; morphological observations,200 μM
same,IC50,GSK-3β,185 µM
same,Pe,in vitro,0.51 ± 0.01 ×10^−6 cm/s
same,R (percent recovery),in vitro,48%
